The target in one series is T1, UGT1A6 (Homo sapiens, UniProt P19224).
T1 construct: purchased BD Gentest Corp. (Woburn, MA, USA); host or cells: baculovirus-infected insect cells
T1 sequence (P19224 27-532): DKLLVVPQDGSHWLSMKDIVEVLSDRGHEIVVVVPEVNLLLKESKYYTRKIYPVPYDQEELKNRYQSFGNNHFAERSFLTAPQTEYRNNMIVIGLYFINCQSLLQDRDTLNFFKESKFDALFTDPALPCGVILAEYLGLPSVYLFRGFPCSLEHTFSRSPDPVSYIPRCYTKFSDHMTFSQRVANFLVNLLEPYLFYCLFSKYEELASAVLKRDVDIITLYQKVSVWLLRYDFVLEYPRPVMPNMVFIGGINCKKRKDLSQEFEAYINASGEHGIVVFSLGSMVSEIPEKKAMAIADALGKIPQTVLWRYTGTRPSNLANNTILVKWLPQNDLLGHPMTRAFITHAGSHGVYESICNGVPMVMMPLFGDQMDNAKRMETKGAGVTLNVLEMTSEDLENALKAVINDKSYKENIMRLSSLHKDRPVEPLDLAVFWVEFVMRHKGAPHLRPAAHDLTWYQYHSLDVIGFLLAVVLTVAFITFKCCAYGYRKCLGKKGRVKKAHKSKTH
The experiment in a line: Inhibition of recombinant UGT-catalyzed 4-MU glucuronidation. It counts as biochemical. The settings on record: pH 7.4, probe 4-methylumbelliferone (4-MU), 110 μM, 100 μM compound, 4-MU probe substrate, negative = activation.

For the next series, the target named is T2, UGT2B7 (Homo sapiens, UniProt P16662).
T2 construct: purchased BD Gentest Corp. (Woburn, MA, USA); host or cells: baculovirus-infected insect cells
T2 sequence (P16662 24-529): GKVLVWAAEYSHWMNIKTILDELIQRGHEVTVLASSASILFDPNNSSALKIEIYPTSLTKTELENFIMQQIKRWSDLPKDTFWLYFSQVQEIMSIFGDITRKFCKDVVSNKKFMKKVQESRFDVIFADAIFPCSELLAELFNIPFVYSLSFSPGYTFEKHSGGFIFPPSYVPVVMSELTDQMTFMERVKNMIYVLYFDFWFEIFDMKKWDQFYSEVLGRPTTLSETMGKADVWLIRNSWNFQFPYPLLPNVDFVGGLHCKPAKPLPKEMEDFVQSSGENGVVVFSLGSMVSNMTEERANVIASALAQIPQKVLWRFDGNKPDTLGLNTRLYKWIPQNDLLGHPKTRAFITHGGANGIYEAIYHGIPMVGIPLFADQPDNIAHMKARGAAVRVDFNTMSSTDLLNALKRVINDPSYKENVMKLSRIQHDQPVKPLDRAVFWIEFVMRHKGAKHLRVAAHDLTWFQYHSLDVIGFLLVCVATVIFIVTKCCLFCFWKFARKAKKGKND
Described as above. Conditions: pH 7.4, probe 4-methylumbelliferone (4-MU), 350 μM, 100 μM compound, 4-MU probe substrate, negative = activation. It counts as biochemical.

SMILES strings stand for the structures.

Broadly, the inhibition is the change of the read-out against control, counted positive when it falls. As for `O=c1c2cc(O)c(O)cc2oc2cc(O)c([C@@H]3O[C@H](CO)[C@@H](O)[C@H](O)[C@H]3O)c(O)c12` [MGF, 1,3,6,7-tetrahydroxyxanthone-C-2-β-D-glucoside], the inhibition at 30 min, 100 µM at UGT1A6 amounted to 11.2%. Also, the inhibition at 120 min, 100 µM at UGT2B7 was -11.2%.

Consider `O=c1c2cc(O)c(O)cc2oc2cc(O)cc(O)c12` [NTR, 1,3,6,7-tetrahydroxyxanthone], for which the inhibition at 30 min, 100 µM at UGT1A6 was 46.2%. The inhibition at 120 min, 100 µM on UGT2B7 was found to be 31.8%.

Values taken from paper PMC6152678, “In Vitro Comparative Study of the Inhibitory Effects of Mangiferin and Its Aglycone Norathyriol towards UDP-Glucuronosyl Transferase (UGT) Isoforms” (Molecules : A Journal of Synthetic Chemistry and Natural …, 2017).
